Some test systems named below: SW-620 colon; HCC-2998 colon; K-562 leukemia; CCRF-CEM leukemia; SR leukemia; LXFL 529 NSCLC; UACC-257 melanoma; DLD-1 colon; SF-539 CNS; SK-MEL-5 melanoma.
Holding throughout (experiment): inhibition of tumour cell growth, NCI panel, 48 h

“And” between values parts separate entries of the source, which are not always exact repeats. Identical values can stand only once.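 Test compounds were applied to cells in 96-well plates for 48 hours at 5 doses. At the GI50, growth is halved. The concentration for full growth arrest is given as TGI.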 Where only a bound is given, the exact number is not on record here.

Our source for the TGI and GI50 values is PubChem BioAssay (NCI).

With `C[C@]12CCC[C@H](O)[C@H]1C[C@H](CO)CC2`, the TGI with SW-620 colon, with HCC-2998 colon, in the test on K-562 leukemia, in the test with CCRF-CEM leukemia, in the test on SR leukemia and in the test on LXFL 529 NSCLC was over 100 µM in each case. Further, the TGI in the test with UACC-257 melanoma, in the test with DLD-1 colon and in the test with SF-539 CNS was over 100 µM in each case.
With `CC(=O)[CH-]C(=O)c1ccccc1.CC(=O)[CH-]C(=O)c1ccccc1.CC[C@H](/C=C/C(C)[C@H]1CCC2[C@@H]3CC=C4C[C@@H]([O-])CC[C@]4(C)C3CC[C@@]21C)C(C)C.CC[O-].[Ti+4]` (stereo partly specified), the GI50 in the test on SW-620 colon is over 100000 nM; with HCC-2998 colon, over 100000 nM; with K-562 leukemia, over 100000 nM; in the test with SK-MEL-5 melanoma it was over 100000 nM; in the test with CCRF-CEM leukemia it was 61400 nM; in the test on LXFL 529 NSCLC, over 100 µM. Moreover, the GI50 in the test with UACC-257 melanoma, with DLD-1 colon and with SF-539 CNS was over 100000 nM in each case. Besides, the TGI with SW-620 colon, in the test with HCC-2998 colon, with K-562 leukemia, with SK-MEL-5 melanoma, in the test with CCRF-CEM leukemia and in the test on LXFL 529 NSCLC was over 100 µM each time. Also, the TGI with UACC-257 melanoma, in the test on DLD-1 colon and in the test on SF-539 CNS was over 100 µM throughout.
As to `C/C(=N\NS(=O)(=O)c1ccc(C)cc1)c1cc2ccccc2n1C`, the TGI in the test on SW-620 colon, in the test with HCC-2998 colon, in the test with K-562 leukemia, in the test with SK-MEL-5 melanoma, in the test on CCRF-CEM leukemia and with SR leukemia was over 100 µM throughout. The TGI with LXFL 529 NSCLC, in the test with UACC-257 melanoma, in the test on DLD-1 colon and in the test with SF-539 CNS was over 100 µM each time.
In the case of `O=C(/C=C/c1ccccc1Cl)c1cccc2ccccc12`, the TGI in the test with SW-620 colon is 4.06 µM; with HCC-2998 colon, 27.9 µM; with K-562 leukemia, over 100 µM; in the test on SK-MEL-5 melanoma, 34 µM; with CCRF-CEM leukemia it was 45.2 µM; in the test with SR leukemia, 9.16 µM. For the same molecule, the TGI in the test with LXFL 529 NSCLC came out at 11.9 µM; in the test on UACC-257 melanoma it was 32 µM; in the test with DLD-1 colon, 25.1 µM; with SF-539 CNS it was 23.3 µM.
Take `COC(=O)C1=CC2CC1C(S(=O)(=O)c1ccccc1)C2S(=O)(=O)c1ccccc1` (stereo unspecified): the TGI with SW-620 colon was 21 µM; with HCC-2998 colon it was 34.4 µM; with K-562 leukemia, 32.3 µM; in the test on SK-MEL-5 melanoma, 33.2 µM; in the test on CCRF-CEM leukemia, 8.44 µM; in the test on SR leukemia, 11.3 µM. Moreover, the TGI is 18.6 µM with LXFL 529 NSCLC, 32.7 µM in the test with UACC-257 melanoma and 29.8 µM with DLD-1 colon.
As for `NC(=O)c1ncn(CCN2CCN(C(=O)NCCCCCCNC(=O)N3CCN(CCn4cnc(C(N)=O)c4N)CC3)CC2)c1N`, the TGI in the test with SW-620 colon, with HCC-2998 colon, with K-562 leukemia, in the test with SK-MEL-5 melanoma, with CCRF-CEM leukemia and in the test with SR leukemia was over 100 µM throughout. Also, the TGI in the test on LXFL 529 NSCLC, with UACC-257 melanoma, with DLD-1 colon and with SF-539 CNS was over 100 µM in each case.
As to `CC1=NN2C(c3ccc(C)cc3)=CSC2=NC(C)(C)C1`, the TGI with SW-620 colon, in the test with HCC-2998 colon, in the test with K-562 leukemia, in the test on SK-MEL-5 melanoma, with CCRF-CEM leukemia and with LXFL 529 NSCLC was over 100 µM each time. Moreover, the TGI in the test on UACC-257 melanoma, with DLD-1 colon and with SF-539 CNS was over 100 µM throughout.
Regarding `COC(=O)C(CC(C)=O)CS(=O)(=O)CC(=O)C(=O)Nc1cccc([N+](=O)[O-])c1` (stereo unspecified), the TGI with SW-620 colon, in the test with HCC-2998 colon, in the test with K-562 leukemia, with SK-MEL-5 melanoma, in the test with CCRF-CEM leukemia and in the test with LXFL 529 NSCLC was over 100 µM throughout. In addition, the TGI with UACC-257 melanoma, with DLD-1 colon and in the test with SF-539 CNS was over 100 µM each time.
`CCOC(=O)C1=C(C)N(Cc2ccccc2)C(=O)C1CC#N` (stereo unspecified): the TGI with SW-620 colon, in the test on HCC-2998 colon, in the test with K-562 leukemia, in the test with CCRF-CEM leukemia, in the test with SR leukemia and in the test with LXFL 529 NSCLC was over 100 µM throughout. Further, the TGI with UACC-257 melanoma, in the test with DLD-1 colon and in the test with SF-539 CNS was over 100 µM in each case.
Take `C=C1COC(O)(C2OCOC(C3CC(=O)NC(=O)C3)C2O)C1C` (stereo unspecified): the GI50 in the test on SW-620 colon is 2.88 nM; in the test with HCC-2998 colon it was 2.18 nM; in the test with K-562 leukemia, 2.41 nM; in the test with SK-MEL-5 melanoma it was 1.66 nM; in the test with UACC-257 melanoma it was 4 nM and 12.6 nM; with DLD-1 colon, 10.9 nM. In addition, the GI50 in the test with SF-539 CNS is 1.65 nM. For the same molecule, the TGI with SW-620 colon was 0.042 µM and 0.142 µM; in the test on HCC-2998 colon it was 0.0174 µM and 0.0244 µM; in the test with K-562 leukemia it was 0.0411 µM; in the test with SK-MEL-5 melanoma, 0.00459 µM and 0.00385 µM; in the test on CCRF-CEM leukemia, 0.00744 µM; in the test with SR leukemia, 0.00841 µM. The TGI with LXFL 529 NSCLC was 0.0897 µM and 0.101 µM; in the test with UACC-257 melanoma it was 0.0278 µM and 0.0453 µM; in the test with DLD-1 colon, 0.0556 µM and 0.0675 µM; in the test with SF-539 CNS, 0.0064 µM and 0.00602 µM.
On to `Cc1cc(=O)n2c3c(c4c(cc13)c(CO)cc(=O)n4C)OC2`, for which the TGI with SW-620 colon is over 100 µM; with HCC-2998 colon it was 44.8 µM; in the test with K-562 leukemia it was 97.7 µM; in the test on SK-MEL-5 melanoma, 75.3 µM; in the test with CCRF-CEM leukemia, 56.8 µM; with LXFL 529 NSCLC it was 34 µM. The TGI is over 100 µM in the test with UACC-257 melanoma, over 100 µM in the test on DLD-1 colon and 51.5 µM in the test on SF-539 CNS.
For the molecule `CC1(c2cccc(N)c2)C2C(=O)NC(=O)C1C(=O)NC2=O` (stereo unspecified), the TGI in the test on SW-620 colon is over 100 µM; in the test with HCC-2998 colon, over 100 µM; with K-562 leukemia it was 67.3 µM; in the test with SK-MEL-5 melanoma, 37 µM; in the test on CCRF-CEM leukemia it was 62.5 µM; with LXFL 529 NSCLC, over 100 µM. Moreover, the TGI in the test with UACC-257 melanoma is over 100 µM; with DLD-1 colon it was over 100 µM; in the test on SF-539 CNS, 81.7 µM.
As for `COC(=O)NN1C(C)=C(C(=O)OC)C2(C#N)C(C(=O)OC)=C(C)N(NC(=O)OC)C12N` (stereo unspecified), the TGI in the test with SW-620 colon, in the test with HCC-2998 colon, with K-562 leukemia, in the test on CCRF-CEM leukemia, in the test on LXFL 529 NSCLC and with UACC-257 melanoma was over 100 µM throughout. In addition, the TGI with DLD-1 colon and with SF-539 CNS was over 100 µM in each case.
Consider `Cc1cc2nc3ccc(=[N+](C)C)cc-3sc2cc1N`, for which the GI50 was 289 nM and 1130 nM in the test on SW-620 colon; 1200 nM and 2120 nM in the test on HCC-2998 colon; 201 nM and 318 nM in the test on K-562 leukemia; 145 nM and 284 nM in the test on SK-MEL-5 melanoma; 279 nM and 310 nM with CCRF-CEM leukemia; 419 nM and 544 nM in the test with SR leukemia. Further, the GI50 was 501 nM and 1950 nM in the test with UACC-257 melanoma; 343 nM and 349 nM in the test with SF-539 CNS. Moreover, the TGI is 1.24 µM and 9.68 µM and 3.05 µM in the test with SW-620 colon; 7.36 µM and 12.2 µM and 10.9 µM in the test with HCC-2998 colon; 0.324 µM and 1.81 µM and 1.33 µM in the test with SK-MEL-5 melanoma; 18.1 µM in the test on LXFL 529 NSCLC; 3.78 µM and 5.85 µM and 10.1 µM in the test on UACC-257 melanoma; 23.5 µM with DLD-1 colon. The TGI in the test with SF-539 CNS was 1.64 µM and 8.97 µM and 1.55 µM.
Take `Cc1ccc2c(c1)C1(OC(=O)c3ccccc31)c1ccc(F)cc1O2` (stereo unspecified): the TGI in the test on SW-620 colon is over 100 µM; with HCC-2998 colon, over 100 µM; in the test on K-562 leukemia, over 100 µM; with SK-MEL-5 melanoma it was over 100 µM; in the test with CCRF-CEM leukemia, over 100 µM; with SR leukemia, 73.8 µM. The TGI in the test with LXFL 529 NSCLC, with UACC-257 melanoma and in the test with DLD-1 colon was over 100 µM throughout.
As to `Cc1ccc2c(c1)C1C(CO2)C(c2ccccc2)=NN1c1ccccc1` (stereo unspecified), the TGI with SW-620 colon, with HCC-2998 colon, in the test on K-562 leukemia, with CCRF-CEM leukemia, in the test on LXFL 529 NSCLC and in the test on UACC-257 melanoma was over 100 µM each time. Also, the TGI in the test on DLD-1 colon and in the test with SF-539 CNS was over 100 µM in each case.
In the case of `Cn1c(=O)c2ccc(-c3ccc(Br)cc3)nc2n(C)c1=O`, the TGI with SW-620 colon, in the test on HCC-2998 colon, in the test with K-562 leukemia, in the test with SK-MEL-5 melanoma, in the test on CCRF-CEM leukemia and in the test on SR leukemia was over 100 µM each time. The TGI with LXFL 529 NSCLC, in the test with UACC-257 melanoma, in the test on DLD-1 colon and in the test on SF-539 CNS was over 100 µM in each case.
Regarding `C/C(=N\NC(=S)N1CCN(C2CCCCCC2)CC1)c1ccccn1`, the GI50 was 407 nM in the test on SW-620 colon; 1400 nM in the test with HCC-2998 colon; under 1 nM in the test on K-562 leukemia; 20.4 nM with SK-MEL-5 melanoma; under 1 nM in the test on CCRF-CEM leukemia; under 1 nM in the test with UACC-257 melanoma. Besides, the GI50 in the test on DLD-1 colon is under 1 nM; in the test on SF-539 CNS, 29.4 nM. The TGI was 3.83 µM and 1.91 µM in the test with SW-620 colon; 3.3 µM and 2.08 µM in the test with HCC-2998 colon; 1.67 µM and 0.97 µM in the test with K-562 leukemia; 8.38 µM and 1.01 µM with SK-MEL-5 melanoma; 0.291 µM and 2.4 µM in the test with CCRF-CEM leukemia; 1.06 µM in the test with SR leukemia. Also, the TGI with LXFL 529 NSCLC was 2.67 µM; in the test on UACC-257 melanoma, 1.21 µM; with DLD-1 colon, 1.96 µM; with SF-539 CNS, 2.5 µM and 2.01 µM.
`CSc1ccc(OCC2OC2O)cc1` (stereo unspecified): the TGI in the test with SW-620 colon is over 30.7 µM; in the test on HCC-2998 colon it was over 100 µM; with K-562 leukemia, over 100 µM; in the test with SK-MEL-5 melanoma, 35.6 µM; in the test with CCRF-CEM leukemia, over 100 µM; in the test on SR leukemia it was over 100 µM. The TGI with LXFL 529 NSCLC, in the test with UACC-257 melanoma, in the test with DLD-1 colon and in the test on SF-539 CNS was over 100 µM throughout.
